Results: PMC10498667 (Chemical Science, 2023)
Where “and” joins values, the source holds several entries; their conditions need not be identical. Identical values can stand only once. Like-named read-outs stand apart in the source and are kept apart here.

Legend:
metal-free Aβ42 = molecular target: T1, metal-free Aβ42 (Homo sapiens, UniProt P05067); test: CD spectroscopy of metal-free Aβ42 (BeStSel); details: Aβ42 100 μM; flavonoid 200 μM; 37 °C; 24 h
T1 construct: purchased Peptide Institute, Inc. (Osaka, Japan)
T1 sequence (P05067 672-713 limits assumed): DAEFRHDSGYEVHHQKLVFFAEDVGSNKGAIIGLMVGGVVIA
Method: CD Spectroscopy. Metal-free Ab42 (100 µM) was incubated with and without 5, 4b, and 6 (200 µM) for 24 h in 20 mM HEPES, pH 7.4, 150 mM NaF at 37 °C with constant agitation (250 rpm).
CD spectra were collected in the range from 195 nm to 255 nm. The digital integration time, the bandwidth, and the scanning speed were 4 s, 2 nm, and 20 nm/min, respectively. Each spectrum was smoothed by Fourier transforms. The change in the secondary structure of metal-free Ab42 […]
treated with a flavonoid was analyzed following the previously reported BeStSel method.25 The measurements were conducted in triplicate. […]
mM HEPES, pH 7.4, 150 mM NaCl) with or without Ab40 (25 µM) in the absence and presence of CuCl2 or ZnCl2 (25 µM). Abs spectra of the samples were collected for 24 h at 37 °C.
6c [3-(3,4-Dihydroxyphenyl)-5,6,7-trimethoxy-4H-chromen-4-one]. […] After 4 h, the reaction mixture was extracted in a solution of ethyl acetate (EtOAc) and saturated sodium acetate (NaOAc; 0.12 g/mL). The organic layer was collected, washed with brine, dried with sodium sulfate ([…]), filtered, and concentrated. The crude product was purified by column chromatography (SiO2; EtOAc:hexanes = 1:1) to yield 6c [Rf = 0.3; yellow powder; 650 mg, 2.0 mmol (yield = 31%)] that was used for the next step without further purification. 1H NMR [400 MHz, […]

MTT cytotoxicity assay = format: cell-based; details: human
Method: Flavonoid 6 was synthesized following previously reported procedures with modifications.[66–68] […] It should be noted that cell viability was calculated, relative to that of the cells containing an equivalent amount of DMSO.
Cell viability was determined by the MTT assay [MTT = 3-(4,5-dimethylthiazol-2-yl)-2,5-diphenyltetrazolium bromide]. Cells were seeded in a 96-well plate (15,000 cells/100 µL) and treated with the samples {[flavonoid] = 5, 10, 25, 50, and 100 µM (1% v/v DMSO)}. After 24 h incubation, 5Y cells were washed with phosphate buffered saline (PBS; GIBCO). MTT [5 mg/mL in PBS (pH 7.4, GIBCO); 25 µL] was added to each well and the plate was incubated for 4 h at 37 °C. The formazan produced by cells was solubilized using an acidic solution of DMF (pH 4.5, 50% v/v, aq) and sodium dodecyl sulfate (SDS; 20% w/v) overnight at room temperature in the dark. Absorbance was measured at 600 nm by a microplate reader (Molecular Devices). Cell viability, relative to that of the cells containing an equivalent amount of DMSO, was calculated.
The measurements were conducted in triplicate. […]

[1] = molecular target: T2, Electric eel acetylcholinesterase (eeAChE) (Electrophorus electricus, UniProt O42275); test: Fluorometric AChE activity assay; format: biochemical
T2 construct: purchased Invitrogen (AChE assay kit)
T2 sequence (O42275 24-633): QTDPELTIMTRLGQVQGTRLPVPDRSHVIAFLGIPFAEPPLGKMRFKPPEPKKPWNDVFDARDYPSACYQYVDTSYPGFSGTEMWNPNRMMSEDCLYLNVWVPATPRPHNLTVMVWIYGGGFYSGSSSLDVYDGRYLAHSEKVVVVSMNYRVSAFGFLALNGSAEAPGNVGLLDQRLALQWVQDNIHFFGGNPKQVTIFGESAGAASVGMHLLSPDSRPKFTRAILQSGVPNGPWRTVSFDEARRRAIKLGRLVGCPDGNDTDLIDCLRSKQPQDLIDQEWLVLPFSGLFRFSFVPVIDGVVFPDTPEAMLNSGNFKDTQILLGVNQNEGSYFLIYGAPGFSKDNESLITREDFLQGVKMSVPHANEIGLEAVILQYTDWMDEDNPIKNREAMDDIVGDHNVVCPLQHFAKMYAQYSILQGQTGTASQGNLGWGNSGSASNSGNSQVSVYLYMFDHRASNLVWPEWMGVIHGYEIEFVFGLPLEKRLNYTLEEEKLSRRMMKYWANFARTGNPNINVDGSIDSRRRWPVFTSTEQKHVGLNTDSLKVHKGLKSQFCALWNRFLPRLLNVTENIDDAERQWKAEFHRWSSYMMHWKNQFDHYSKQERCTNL
Source text: Inhibiting the activity of AChE can maintain a proper level of ACh under dysregulated cholinergic conditions.[10,11] Thus, the inhibitory capability of flavonoids against AChE was investigated by a previously reported fluorescent AChE assay with slight modifications.[60] […] The inclusion of three hydroxyl groups on the A ring is critical for controlling the catalytic activity of AChE, as previously reported,[49] whereas the incorporation of a chloro substituent, with three hydroxyl groups, and methoxy moieties instead of hydroxyl groups on the A ring can decrease such inhibitory activity. Flavonoids 2, 3, and 1b over 1 illustrates the importance of the position of hydroxyl groups on the A ring and the isoflavone variation in directing the flavonoids' ability to inhibit the activity of AChE. […]
All experiments were performed in triplicate.
AChE Activity Assay. The AChE inhibitory activity of flavonoids was measured by a fluorometric AChE assay kit (Invitrogen) following the manufacturer ’s protocol with slight modifications.
Electric eel acetylcholinesterase (eeAChE) was dissolved and diluted with a working solution. The eeAChE solution (50 µL) was added into a 96-well plate. Various concentrations of flavonoids were then introduced into the 96-well plate. The final concentrations of flavonoids were as follow: […]
µM). After shaking, the mixture of eeAChE and flavonoids was pre-incubated for 15 min. A reaction mixture containing acetylcholine, an AChE probe, and AbRedTM was added into the 96-well plate to initiate the reaction. The AChE activity was calculated based on the fluorescence intensity (lex/lem = 571/585 nm) of the wells that was detected after 15 min incubation. Data were normalized to the control (no inhibitor). All experiments were performed in triplicate. […]
For the disaggregation studies, Ab (25 µM) was incubated with and without CuCl2 or ZnCl2 (25 µM) for 24 h at 37 °C with constant agitation to generate preformed Ab aggregates. The resultant Ab aggregates were then treated with flavonoids (50 µM) and incubated for additional 24 h with constant agitation. For the additional disaggregation experiments, preformed Ab42 aggregates (25 µM) or Ab42 seeds (10% v/v) with or without metal ions (25 µM for CuCl2 and ZnCl2) were incubated with flavonoids (50 µM) for 24 h with constant agitation. The resultant Ab aggregates were then treated with freshly prepared Ab42

[2] = human neuroblastoma 5Y cells, 100 μM flavonoid, 24 h, 5Y cells, relative to DMSO, read-out: cell viability
[3] = fluorometric assay, eeAChE, read-out: IC50 for AChE inhibition
[4] = 100 μM flavonoid, 24 h, 5Y cells, relative to DMSO, read-out: cell viability

Row | Structure (SMILES) | Random Coils (%) of metal-free Aβ42 (metal-free Aβ42) | Turn (%) of metal-free Aβ42 (metal-free Aβ42) [%] | α-Helix (%) of metal-free Aβ42 (metal-free Aβ42) [%] | β-Sheet (%) of metal-free Aβ42 (metal-free Aβ42) | viability at 24 h, 100 μM (MTT cytotoxicity assay; [2]) [%] | IC50 [1, 3] [µM] | viability at 24 h, 100 μM (MTT cytotoxicity assay; [4]) [%] | inhibitory activity against AChE (IC50 could not be obtained) ([1]; fluorometric assay, eeAChE) | viability at 24 h, 100 μM (MTT cytotoxicity assay) [%] | IC50 [1] [µM]
1 | O=c1c(-c2ccccc2)coc2cc(O)c(O)c(O)c12 [4b, 5,6,7-trihydroxyisoflavone] | 53.8% and 53.8 (±5.9) % | 10.3 | 0.4 | 35.5% and 35.5 (±5.7) % | ~70 | 1.4 |  |  |  | 
2 | O=c1cc(-c2ccccc2)oc2cc(O)cc(O)c12 [compound 1, chrysin] |  |  |  |  |  |  | ~30 | negligible inhibitory activity |  | 
3 | O=c1cc(-c2ccccc2)oc2cc(O)c(O)cc12 [compound 2, 6,7-dihydroxyflavone] |  |  |  |  |  |  |  |  | ~60 | 4.18
4 | O=c1cc(-c2ccccc2)oc2ccc(O)c(O)c12 [compound 3, 5,6-dihydroxyflavone] |  |  |  |  | ~50 | 4.51 |  |  |  | 
5 | O=c1cc(-c2ccccc2)oc2cc(O)c(O)c(O)c12 [compound 4, baicalein] |  |  |  |  |  |  | ~70 |  |  | 1.95
6 | O=c1cc(-c2ccccc2)oc2c(Cl)c(O)c(O)c(O)c12 [compound 5, 8-chlorobaicalein] | 19.7% and 19.7 (±15.5) % | 12.5 | 1.2 | 66.7% and 66.7 (±15.3) % | ~60 | 12.3 |  |  |  | 
7 | O=c1c(-c2ccc(O)c(O)c2)coc2cc(O)c(O)c(O)c12 [compound 6, 3-(3,4-dihydroxyphenyl)-5,6,7-trihydroxy-4H-chromen-4-one] | 13.6% | 38.1 | 1.5 | 46.7% |  | 0.19 |  |  |  | 
